{"source": "patent US8012969B2", "about": "“11C-labeled benzyl-lactam compounds and their use as imaging agents” (GE Healthcare Limited, priority 2005, dated 2011)", "key": {"5HT1B receptor [1]": {"biological_target": "T1, 5HT1B receptor (Cavia porcellus, UniProt O08892)", "T1 construct": "in-vitro autoradiographies and ex-vivo experiments in Guinea pig; from tissue; host or cells: guinea pig brain (external globus pallidus, ventral pallidum)", "T1 sequence (O08892 whole entry)": "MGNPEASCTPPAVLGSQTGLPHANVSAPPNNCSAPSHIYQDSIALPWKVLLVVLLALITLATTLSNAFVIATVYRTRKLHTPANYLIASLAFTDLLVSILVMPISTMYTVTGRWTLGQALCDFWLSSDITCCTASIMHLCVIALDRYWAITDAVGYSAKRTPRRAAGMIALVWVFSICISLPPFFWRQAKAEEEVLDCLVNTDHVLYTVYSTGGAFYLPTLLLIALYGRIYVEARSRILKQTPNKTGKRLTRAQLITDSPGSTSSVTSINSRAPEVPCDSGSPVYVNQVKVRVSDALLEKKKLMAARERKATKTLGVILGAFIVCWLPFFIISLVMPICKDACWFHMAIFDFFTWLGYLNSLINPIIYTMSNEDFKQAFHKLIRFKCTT", "assay": "in-vitro autoradiographies with compound I-B", "type": "binding", "conditions": "in-vitro autoradiography, Guinea pig"}, "5HT1B receptor [2]": {"biological_target": "T1, 5HT1B receptor", "assay": "ex-vivo experiments with compound I-B", "type": "in vivo", "conditions": "Guinea pig"}, "5HT1B receptor [3]": {"biological_target": "T2, 5HT1B receptor (Macaca mulatta, UniProt F6SFA9)", "T2 construct": "in-vivo PET-experiments in Rhesus monkeys; from tissue; host or cells: brain of living rhesus monkeys (PET)", "T2 sequence (F6SFA9 1-390)": "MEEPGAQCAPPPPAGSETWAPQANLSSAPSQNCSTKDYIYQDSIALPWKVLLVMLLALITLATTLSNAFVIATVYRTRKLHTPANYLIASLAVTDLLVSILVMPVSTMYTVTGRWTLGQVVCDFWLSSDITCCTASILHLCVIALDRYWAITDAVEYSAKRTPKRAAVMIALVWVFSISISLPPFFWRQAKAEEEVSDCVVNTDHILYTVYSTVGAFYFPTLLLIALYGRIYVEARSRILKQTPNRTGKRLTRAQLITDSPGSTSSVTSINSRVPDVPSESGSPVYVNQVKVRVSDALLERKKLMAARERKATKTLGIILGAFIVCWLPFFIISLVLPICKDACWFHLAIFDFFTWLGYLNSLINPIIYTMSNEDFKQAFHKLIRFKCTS", "assay": "in-vivo PET-experiments with compound I-B", "conditions": "Rhesus monkeys"}}}
{"compound": "COC(C)(C)c1ccc(N2CC[C@@H](Cc3ccccc3N3CCN([11CH3])CC3)C2=O)cc1", "note": "[compound I-B, R-1-[4-(2-methoxy-isopropyl)-phenyl]-3-[2-(4-[^11C]methyl-piperazin-1-yl)benzyl]-pyrrolidin-2-one]", "values": [{"measurement": "sensitivity of uptake to blocking by other 5HT1B antagonists", "setting": "5HT1B receptor [1]", "result": "sensitive to blocking by other 5HT1B antagonists in a dose dependent manner"}, {"measurement": "specific uptake (regional distribution)", "setting": "5HT1B receptor [1]", "result": "specific uptake of compound I-B mainly in the external globus pallidus and ventral pallidum"}, {"measurement": "sensitivity of uptake to blocking by other 5HT1B antagonists", "setting": "5HT1B receptor [2]", "result": "sensitive to blocking by other 5HT1B antagonists in a dose dependent manner"}, {"measurement": "specific uptake (regional distribution)", "setting": "5HT1B receptor [2]", "result": "specific uptake of compound I-B mainly in the external globus pallidus and ventral pallidum"}, {"measurement": "sensitivity of uptake to blocking by other 5HT1B antagonists", "setting": "5HT1B receptor [3]", "result": "sensitive to blocking by other 5HT1B antagonists in a dose dependent manner"}, {"measurement": "specific uptake (regional distribution)", "setting": "5HT1B receptor [3]", "result": "specific uptake of compound I-B mainly in the external globus pallidus and ventral pallidum"}]}
